Measurements as given in patent publication US9976141B2, “Compositions and methods for inhibiting gene expression of Hif2alpha” (Arrowhead Madison Inc., priority 2015, dated 2018).

Test system: human (tumor) Hif2α (EPAS1) mRNA
Test: Hif2α knockdown in orthotopic RCC tumor bearing mice, single injection of RNAi trigger-delivery polymer conjugate, RT-qPCR (Table 7)
Type: in vivo
Conditions: single tail vein injection, relative to isotonic glucose
How it was run: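 A single intravenous dose of Hif2α RNAi trigger–delivery polymer conjugate, or isotonic glucose vehicle, was given to nude mice with subcapsular A498-SEAP renal tumours (about 5–6 weeks old). At the indicated time, tumour RNA was assayed by biplex TaqMan qPCR against CycA, and relative expression was calculated by ΔΔCT versus vehicle.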

[1] = RNAi trigger 50 μg, polymer 064 125 μg
[2] = RNAi trigger 150 μg, polymer 100A 300 μg

Substance	Relative Expression day 4 (Hif2α mRNA in kidney tumor) [1]	other results
AD03193 (antisense AGUAAAACAAUUGUGUACUUUAA; sense AAAGUACACAAUUGUUUUACT; Hif2alpha RNAi agent antisense strand; modified_base 2,4,6,8,14 /mod_base = “2′-deoxy-2′-fluoro corresponding nucleoside”; modified_base 1,3,5,7,9,10,11,12,13,15,16,17,18,19,20,21,22,23 /mod_base = “2′-O-methyl corresponding nucleoside”; modified_base 2,3,22,23 /mod_base = “5′-phosphorothioate corresponding nucleotide”; Hif2alpha RNAi agent sense strand; modified_base 9,10,11 /mod_base = “2′-deoxy-2′-fluoro corresponding nucleoside”; modified_base 1,2,3,4,5,6,7,8,12,13,14,15,16,17,18,19,20 /mod_base = “2′-O-methyl corresponding nucleoside”; modified_base 21 /mod_base = “3′-3′-linked nucleoti)	0.275	–
AD03189 (antisense UGUAAAACAAUUGUGUACUUUAA; sense AAAGUACACAAUUGUUUUACA; Hif2alpha RNAi agent antisense strand; modified_base 2,4,6,8,10,14,16,18 /mod_base = “2′-deoxy-2′-fluoro corresponding nucleoside”; modified_base 1,3,5,7,9,11,12,13,15,17,19,20,21,22,23 /mod_base = “2′-O-methyl corresponding nucleoside”; modified_base 2,3,22,23 /mod_base = “5′-phosphorothioate corresponding nucleotide”; Hif2alpha RNAi agent sense strand; modified_base 3,5,7,9,10,11,13,15,19 /mod_base = “2′-deoxy-2′-fluoro corresponding nucleoside”; modified_base 1,2,4,6,8,12,14,16,17,18,20 /mod_base = “2′-O-methyl corresponding nucleoside”; modified_base 21 /mod_base = “3′-3′-linked nucleoti)	0.245	–
AD03187 (antisense UGUAAAACAAUUGUGUACUUU; sense AGUACACAAUUGUUUUACAT; Hif2alpha RNAi agent antisense strand; modified_base 2,4,6,8,10,14,16,18 /mod_base = “2′-deoxy-2′-fluoro corresponding nucleoside”; modified_base 1,3,5,7,9,11,12,13,15,17,19,20,21 /mod_base = “2′-O-methyl corresponding nucleoside”; modified_base 2,3,20,21 /mod_base = “5′-phosphorothioate corresponding nucleotide”; Hif2alpha RNAi agent sense strand; modified_base 3,5,7,8,9,11,13,17 /mod_base = “2′-deoxy-2′-fluoro corresponding nucleoside”; modified_base 1,2,4,6,10,12,14,15,16,18,19 /mod_base = “2′-O-methyl corresponding nucleoside”; modified_base 20 /mod_base = “3′-3′-linked nucleotide”; modi)	1.000	–
AD02873 (antisense UUUCAUGAAAUCGUUACGUUG; sense UAUACGUAACGAUUUCAUGAAAT; Hif2alpha RNAi agent antisense strand; modified_base 2,4,6,8,10,14,16,18 /mod_base = “2′-deoxy-2′-fluoro corresponding nucleoside”; modified_base 1,3,5,7,9,11,12,13,15,17,19,20,21 /mod_base = “2′-O-methyl corresponding nucleoside”; modified_base 2,3,20,21 /mod_base = “5′-phosphorothioate corresponding nucleotide”; Hif2alpha RNAi agent sense strand; modified_base 2 modified base = “2′-hydroxy corresponding nucleoside”; modified_base 6,8,10,11,12,16,18,20 /mod_base = “2′-deoxy-2′-fluoro corresponding nucleoside”; modified_base 1,3,4,5,7,9,13,14,15,17,19,21,22 /mod_base = “2′-O-methyl correspon)	0.079	–
AD01411 (antisense TUUCAUGAAAUCGUUACGUCGGCUAU; sense UAUAUCGACGUAACGAUUUCAUGAAA; Hif2alpha RNAi agent antisense strand; modified_base 25 modified base = “2′-hydroxy corresponding nucleoside”; modified_base 2,4,6,8,10,12,14,16,18,20 /mod_base = “2′-deoxy-2′-fluoro corresponding nucleoside”; modified_base 3,5,7,11,13,15,17,19,21,22,23,24,26 /mod_base = “2′-O-methyl corresponding nucleoside”; modified_base 9 /mod_base = “2′-3′ seco corresponding nucleotide”; modified_base 2,24 /m; Hif2alpha RNAi agent sense strand; modified_base 2,4 modified base = “2′-hydroxy corresponding nucleoside”; modified_base 6,8,10,12,14,16,18,20,22,24,26 /mod_base = “2′-deoxy-2′-fluoro correspondi)	–	Relative Expression day 4 (Hif2α mRNA in kidney tumor) [2]: 0.36
AD01291 (antisense TUUCAUGAAAUCGUUACGUUGGC; sense CAACGUAACGAUUUCAUGAAA; Hif2alpha RNAi agent antisense strand; modified_base 2,4,6,8,10,14,16,18,20 /mod_base = “2′-deoxy-2′-fluoro corresponding nucleoside”; modified_base 3,5,7,9,11,12,13,15,17,19,21,22,23 /mod_base = “2′-O-methyl corresponding nucleoside”; modified_base 2,3,22,23 /mod_base = “5′-phosphorothioate corresponding nucleotide”; Hif2alpha RNAi agent sense strand; modified_base 1,3,5,7,9,10,11,13,15,17,19,21 /mod_base = “2′-deoxy-2′-fluoro corresponding nucleoside”; modified_base 2,4,6,8,12,14,16,18,20 /mod_base = “2′-O-methyl corresponding nucleoside”; modified_base 2,3 /mod_base = “5′-phosphorothioate)	–	Relative Expression day 4 (Hif2α mRNA in kidney tumor) (RNAi trigger 80 μg, polymer 126 400 μg): 0.19
AD03262 (antisense AUUCAUGAAAUCGUUACGUUG; sense ACGUAACGAUUUCAUGAAUT; Hif2alpha RNAi agent antisense strand; modified_base 2,8,10,14 /mod_base = “2′-deoxy-2′-fluoro corresponding nucleoside”; modified_base 1,3,4,5,6,7,9,11,12,13,15,16,17,18,19,20,21 /mod_base = “2′-O-methyl corresponding nucleoside”; modified_base 2,3,20,21 /mod_base = “5′-phosphorothioate corresponding nucleotide”; Hif2alpha RNAi agent sense strand; modified_base 7,8,9 /mod_base = “2′-deoxy-2′-fluoro corresponding nucleoside”; modified_base 1,2,3,4,5,6,10,11,12,13,14,15,16,17,18,19 /mod_base = “2′-O-methyl corresponding nucleoside”; modified_base 20 /mod_base = “3′-3′-linked nucleotide”; modi)	0.197	–
AD01409 (antisense TUUCAUGAAAUCGUUACGUCGGCUAU; sense UAUAUCGACGUAACGAUUUCAUGAAA; Hif2alpha RNAi agent antisense strand; modified_base 25 modified base = “2′-hydroxy corresponding nucleoside”; modified_base 2,4,6,8,10,12,14,16,18,20 /mod_base = “2′-deoxy-2′-fluoro corresponding nucleoside”; modified_base 3,5,7,11,13,15,17,19,21,22,23,24,26 /mod_base = “2′-O-methyl corresponding nucleoside”; modified_base 9 /mod_base = “2′-3′ seco corresponding nucleotide”; modified_base 2,3,23,; Hif2alpha RNAi agent sense strand; modified_base 2,4 modified base = “2′-hydroxy corresponding nucleoside”; modified_base 6,8,10,12,14,16,18,20,22,24,26 /mod_base = “2′-deoxy-2′-fluoro correspondi)	–	Relative Expression day 4 (Hif2α mRNA in kidney tumor) [2]: 0.55
AD03263 (antisense AUUCAUGAAAUCGUUACGUUG; sense ACGUAACGAUUUCAUGAAUN; Hif2alpha RNAi agent antisense strand; modified_base 2,8,10,14 /mod_base = “2′-deoxy-2′-fluoro corresponding nucleoside”; modified_base 1,3,4,5,6,7,9,11,12,13,15,16,17,18,19,20,21 /mod_base = “2′-O-methyl corresponding nucleoside”; modified_base 2,3,20,21 /mod_base = “5′-phosphorothioate corresponding nucleotide”; Hif2alpha RNAi agent sense strand; modified_base 7,8,9 /mod_base = “2′-deoxy-2′-fluoro corresponding nucleoside”; modified_base 1,2,3,4,5,6,10,11,12,13,14,15,16,17,18,19 /mod_base = “2′-O-methyl corresponding nucleoside”; modified_base 20 /mod_base = “3′-3′-linked abasic site”; mod)	0.134	–
